Substitutions are numbered along the chain they refer to. Entries after “also recorded” stand apart in the source; their conditions may differ.
Columns and labels:
AR F876L = biological target: T1, AR F876L (Homo sapiens, UniProt P10275, DEL79-80/DUP473-473/F877L); test: EGFP reporter assay of AR activity, LNCaP-Pb.PSE.EGFP cells, flow cytometry; assay type: cell-based; conditions: 10 μM, 4 days of treatment
T1 construct: expressed in transfected cells
T1 sequence (P10275 with tags, fused parts or gaps DEL79-80/DUP473-473/F877L): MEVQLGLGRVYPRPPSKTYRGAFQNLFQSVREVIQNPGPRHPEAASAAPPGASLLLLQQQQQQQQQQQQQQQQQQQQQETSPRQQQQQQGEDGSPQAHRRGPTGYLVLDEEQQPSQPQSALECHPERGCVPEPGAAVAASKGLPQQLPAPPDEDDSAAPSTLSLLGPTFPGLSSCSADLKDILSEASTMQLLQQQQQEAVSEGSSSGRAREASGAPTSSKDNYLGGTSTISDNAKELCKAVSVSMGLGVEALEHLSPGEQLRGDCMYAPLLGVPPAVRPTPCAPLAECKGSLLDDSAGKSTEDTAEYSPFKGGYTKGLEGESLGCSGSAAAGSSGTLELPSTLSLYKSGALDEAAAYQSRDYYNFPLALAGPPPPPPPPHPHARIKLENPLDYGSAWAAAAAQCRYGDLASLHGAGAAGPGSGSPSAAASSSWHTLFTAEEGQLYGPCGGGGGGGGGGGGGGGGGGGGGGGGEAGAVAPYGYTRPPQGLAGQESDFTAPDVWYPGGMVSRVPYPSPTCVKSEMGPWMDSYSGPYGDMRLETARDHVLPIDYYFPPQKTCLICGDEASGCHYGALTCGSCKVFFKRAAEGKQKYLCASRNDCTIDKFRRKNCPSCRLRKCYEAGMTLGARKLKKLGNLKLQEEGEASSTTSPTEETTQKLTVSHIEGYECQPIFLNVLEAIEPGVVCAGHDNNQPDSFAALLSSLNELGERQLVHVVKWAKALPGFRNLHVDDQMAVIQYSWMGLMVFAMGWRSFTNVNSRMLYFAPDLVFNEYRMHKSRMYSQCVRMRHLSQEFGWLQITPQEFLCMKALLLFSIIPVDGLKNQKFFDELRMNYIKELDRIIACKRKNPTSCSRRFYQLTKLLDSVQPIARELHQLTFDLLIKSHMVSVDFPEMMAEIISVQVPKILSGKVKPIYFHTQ
Text: (§1) This clone was used for all flow cytometry assays and for the FACS-based resistance screens.

AR WT = biological target: T2, AR WT (Homo sapiens, UniProt P10275, DEL79-80/DUP473-473); test: as above; assay type: cell-based; conditions: 10 μM, 4 days of treatment
T2 construct: expressed in transfected cells; host or cells: LNCaP-Pb.PSE.EGFP (pantropic retroviral infection, blasticidin selection)
T2 sequence (P10275 with tags, fused parts or gaps DEL79-80/DUP473-473): T1 sequence (P10275 with tags, fused parts or gaps DEL79-80/DUP473-473/F877L) with L876F
Text: as §1

[1] = test system: VCaP cells overexpressing AR WT; test: VCaP growth assay (CellTiter-GLO); assay type: cell-based, human; conditions: full-serum containing media, 10 μM
[2] = test system: VCaP cells overexpressing AR F876L; test: VCaP growth assay (CellTiter-GLO); assay type: cell-based, human; conditions: full-serum containing media, 10 μM
[3] = test system: CWR22PC cells expressing AR WT; test: CWR22PC cell viability (CellTiterGLO); assay type: cell-based, human; conditions: full serum media; days 1, 4, and 7
Procedure: […]. […] CellTiterGLO assay was performed on days 1, 4, and 7 to measure cell viability. […] CellTiterGLO assay was performed on days 1, 4, and 7 to measure cell viability.
[…]. […] CellTiterGLO assay was performed on days 1, 4, and 7 to determine cell viability. RLU=relative light units.

[4] = test system: CWR22PC cells expressing AR F876L; test: CWR22PC cell viability (CellTiterGLO); assay type: cell-based, human; conditions: full serum media; days 1, 4, and 7
Procedure: CellTiterGLO assay was performed on days 1, 4, and 7 to measure cell viability. […] CellTiterGLO assay was performed on days 1, 4, and 7 to measure cell viability.
CellTiterGLO assay was performed on days 1, 4, and 7 to determine cell viability. RLU=relative light units.

[5] = test system: DU145 (an AR null human prostate cancer cell line); test: DU145 cell viability (CellTiterGLO); assay type: cell-based; conditions: 10 μM, full serum containing media
Procedure: DU145 cells were cultured in full serum containing media with 10 uM of the indicated antiandrogens. CellTiterGLO assay was performed on days 0, 3, and 6 to determine cell viability. RLU=relative light units.

[6] = test system: VCaP cells expressing AR WT and AR F876L; test: Western blot of AR signaling and PARP cleavage in VCaP cells; assay type: cell-based, human; conditions: 10 μM, 4 days, media containing FBS
Procedure: Fetal bovine serum (FBS) and charcoal-stripped, dextran-treated fetal bovine serum (CSS) were purchased from Omega Scientific. […] Serial dilutions of all drugs were made using DMSO. Antibodies used for immunoblot assays were b-actin (AC-15, Sigma) PARP (#9543; Cell Signaling Technology), FKBP5 (IHC-00289, Bethyl), b-tubulin (D-10) and androgen receptor (N-20) (both from Santa Cruz Biotechnology). Protein lysates were prepared in M-PER protein extraction reagent (Pierce) or 1% SDS buffer. The chromatin immunoprecipitation assay was conducted using a kit (Upstate) with an antibody for androgen receptor (PG-21, Upstate). Nontarget and mouse AR siRNA pools were from the ON-TARGETplus collection (Dharmacon).

CNC(=O)c1ccc(N2C(=S)N(c3ccc(C#N)c(C(F)(F)F)c3)C(=O)C23CCCC(C)(C)C3)cc1F (racemic) [(±)-DR103, 4-(3-(4-cyano-3-(trifluoromethyl)phenyl)-7,7-dimethyl-4-oxo-2-thioxo-1,3-diazaspiro[4.5]decan-1-yl)-2-fluoro-N-methylbenzamide]
Effect on transcriptional activity of AR F876L in EGFP reporter assay (agonism or antagonism) (AR F876L): effectively antagonized; also recorded: potently inhibited
Effect on transcriptional activity of AR WT in EGFP reporter assay (agonism or antagonism) (AR WT): effectively antagonized
Growth of VCaP cells, AR WT [1]: inhibited the growth
Growth of VCaP cells, AR WT ([1]; listed as (+)-DR103): effectively inhibits the growth of both models
Growth of VCaP cells overexpressing AR F876L [2]: inhibited the growth
Growth of VCaP cells overexpressing AR F876L ([2]; listed as (+)-DR103): effectively inhibits the growth of both models
Growth/viability of CWR22PC cells, AR WT [3]: growth inhibition
Growth/viability of CWR22PC cells expressing AR F876L [4]: growth inhibition
Proliferation of DU145 cells ([5]; listed as (+)-DR103): did not impact the proliferation
Proliferation of DU145 cells ([5]; listed as DR103): no significant growth inhibition
Endogenous AR signaling (Western blot) [6]: inhibited endogenous AR signaling
PARP cleavage (Western blot) [6]: induced PARP cleavage
Endogenous AR signaling (Western blot) ([6]; listed as DR103): efficiently inhibits AR signaling
PARP cleavage (Western blot) ([6]; listed as DR103): induces PARP cleavage

— US10206911B2, “Androgen receptor variants and methods for making and using” (MEMORIAL SLOAN-KETTERING CANCER CENTER, priority 2012, dated 2019)
